# According to patent US20250230138A1, “COMPOUNDS HAVING A T-STRUCTURE FORMED BY AT LEAST FOUR CYCLES FOR USE IN THE TREATMENT OF CANCER AND OTHER INDICATIONS” (TheRas, Inc., priority 2022, published 2025):
# Like-named read-outs stand apart in the source and are kept apart here.
# Experiments:
# [1] = target: KRAS-PI3Kα interaction (KRAS-Q25A binding to avi-tagged full length PI3Kα) (Homo sapiens (Human), UniProt P42336); experiment: Disrupting KRAS-PI3Kα interaction by SPR inhibition assay; conditions: KRAS-Q25A at 20 μM, 25° C.
# Method: SPR binding experiments were collected on a Biacore 8K Instrument (Cytiva). Neutravidin (Pierce) was amine coupled to the carboxymethylated dextran surface of a CM5 sensor chip (Cytiva) using standard amine coupling chemistry. The CM5 chip surface was first activated with 0.1 M N-hydroxy succinimide and 0.4 M N-ethyl-N′-(3-dimethyl aminopropyl) carbodiimide at a flow rate of 20 μL/min using 20 mM HEPES pH 7.4, 150 mM NaCl as the running buffer. Next, neutravidin was diluted to 20 μg/mL in 10 mM sodium acetate (pH 4.5) and injected on all flow cells until a density of approximately 10,000 response units (RU) was immobilized. Activated amine groups were quenched with an injection of 1 M ethanolamine (pH 8.0). 300-500 RU of avi-tagged full length PI3Kα was captured on all flow cells in 20 mM HEPES pH 7.4, 150 mM NaCl, 5 mM MgCl2, 1 mM TCEP, 0.05% tween 20, 5% DMSO buffer. KRAS-Q25A at 20 μM was mixed with 8 concentrations of compound (50 nM-100 μM) and injected over the full-length PI3Kα at 30 μL/min and 25° C. Steady-state levels of KRAS binding were recorded and fit with a 4-parameter inhibition model to determine the IC50 values.
# [2] = target: Cys242 in human PIK3CA (157-299) (Homo sapiens (Human), UniProt P42336); experiment: Covalent modification assay using MALDI-TOF MS; assay type: biochemical; conditions: 4 h reaction time point; 3.33 μM protein target, 1:7.5 protein to compound ratio (compounds 1-852)
# Outline: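 PIK3CA (157-299) at 3.33 μM or 1 μM in 20 mM HEPES, 150 mM NaCl, 2 mM MgCl2, pH 7.3 was incubated with compound (from 10 mM DMSO stocks) in the dark at room temperature for 15 min, 30 min, 2 h or 4 h. Linear-mode MALDI-TOF peak heights gave percent modification.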
# [3] = tested on: pAKT in Tet-on KRAS G12D HeLa cells; experiment: Cell-based pAKT HTRF assay in Tet-on KRAS G12D HeLa cells; conditions: read-out: pAKT inhibition IC50 in Tet-on KRAS G12D HeLa cells
# Method: To determine the effectiveness of compounds in disrupting PIK3CA/KRAS signaling in cells, we implemented pAKT HTRF assay (Perkin-Elmer) in Tet-on KRAS G12D HeLa cells.
# On Day 1, cells were seeded into 96-well plates at 2×10^4 cells/well in complete growth media (DMEM, 10% Tet-Screened FBS) supplemented with 200 ng/mL doxycycline.
# On Day 2, cells were treated with compounds at 0.25% DMSO. The source plate was created with compounds diluted in media at 5-fold the final assay concentration. The compounds are run in a 9-point concentration curve starting at 75 μM, with a 3-fold dilution between concentrations. […] 20 μL was transferred onto the cell plates (final volume in wells was 100 μL). Plates were harvested after 30 min and 4 hr incubation by aspirating media and adding kit-supplied 1× supplemented lysis buffer to all wells (50 μL per well). This then changed to 4 hr only when compounds became covalent. Plates were then placed on a plate shaker and incubated at 850 rpm for an additional 30 min. The antibody mixture solution was prepared by diluting aliquoted d2 and Eu Cryptate antibodies 1:20 in kit supplied detection buffer, then mixed the diluted antibodies solutions (1:1 v:v). 4 μL of this solution was then added to a 384-well detection plate (Perkin Elmer; 6008230). Samples were homogenized by pipetting up and down and then transferred (16 μL of cell lysates) from the 96-well cell culture plate to two wells of the HTRF 384-well detection plate containing the antibody solution. Plates were centrifuged (524 g for 1 min) and allowed to incubate between 4 and 24 h at room temperature. The maximum signal is reached after 4 h incubation time and remains stable over a period of 24 hours. Therefore, readings can be made between 4 and 24 h of incubation. Plates were centrifuged again (524 g for 1 min), and analyzed on the EnVision plate reader using the following settings: Excitation 320 nm, Bandwidth […]; Emission 615 nm, Bandwidth […], Gain 100%, Flashes 100, Lag 60 μs.
# [4] = tested on: pAKT in BT474 cells; experiment: Cell-based pAKT HTRF assay in BT474 cells; conditions: BT474 cells; 4 hr incubation; Compounds 10-999; read-out: pAKT inhibition IC50 in BT474 cells
# Outline: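 9-pt curve, top 3 μM, 3-fold steps, 0.25% DMSO; 4 hr compound exposure. Lysis, then HTRF with d2/Eu Cryptate antibody pair, 4–24 h RT. Ex 320 nm, Em 615 nm.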
# Chain of KRAS-PI3Kα interaction (KRAS-Q25A binding to avi-tagged full length PI3Kα) (P42336 whole entry, looked up, stated change not applied): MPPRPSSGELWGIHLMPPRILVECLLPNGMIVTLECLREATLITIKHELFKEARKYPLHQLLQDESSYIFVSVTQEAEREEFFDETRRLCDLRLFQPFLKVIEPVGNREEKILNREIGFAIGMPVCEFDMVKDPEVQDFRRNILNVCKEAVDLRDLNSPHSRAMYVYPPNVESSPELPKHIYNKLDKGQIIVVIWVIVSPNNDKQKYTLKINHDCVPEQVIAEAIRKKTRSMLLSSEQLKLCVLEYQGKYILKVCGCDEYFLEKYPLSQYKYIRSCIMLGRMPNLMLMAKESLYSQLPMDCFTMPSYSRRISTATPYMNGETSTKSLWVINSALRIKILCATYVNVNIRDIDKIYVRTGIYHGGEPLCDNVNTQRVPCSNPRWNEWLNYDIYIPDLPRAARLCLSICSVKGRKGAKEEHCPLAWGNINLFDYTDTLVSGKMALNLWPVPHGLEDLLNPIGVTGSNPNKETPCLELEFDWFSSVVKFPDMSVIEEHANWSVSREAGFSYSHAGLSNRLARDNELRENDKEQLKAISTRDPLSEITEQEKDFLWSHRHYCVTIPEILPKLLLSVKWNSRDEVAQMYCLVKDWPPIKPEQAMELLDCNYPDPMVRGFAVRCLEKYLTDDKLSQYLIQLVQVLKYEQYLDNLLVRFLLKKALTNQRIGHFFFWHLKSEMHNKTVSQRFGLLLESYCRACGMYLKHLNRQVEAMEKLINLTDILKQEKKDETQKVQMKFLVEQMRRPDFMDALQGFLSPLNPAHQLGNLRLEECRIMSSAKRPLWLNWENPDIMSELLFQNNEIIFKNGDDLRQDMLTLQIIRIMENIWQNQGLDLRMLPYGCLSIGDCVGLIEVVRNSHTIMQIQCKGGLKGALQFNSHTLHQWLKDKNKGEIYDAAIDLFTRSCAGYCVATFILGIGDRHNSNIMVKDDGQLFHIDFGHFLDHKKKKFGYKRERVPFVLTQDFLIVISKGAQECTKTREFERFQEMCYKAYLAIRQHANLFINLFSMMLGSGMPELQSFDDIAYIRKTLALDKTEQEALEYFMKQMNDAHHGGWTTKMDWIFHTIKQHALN
# Chain of KRAS-PI3Kα interaction (KRAS-Q25A binding to avi-tagged full length PI3Kα) (P27986 whole entry partner, looked up): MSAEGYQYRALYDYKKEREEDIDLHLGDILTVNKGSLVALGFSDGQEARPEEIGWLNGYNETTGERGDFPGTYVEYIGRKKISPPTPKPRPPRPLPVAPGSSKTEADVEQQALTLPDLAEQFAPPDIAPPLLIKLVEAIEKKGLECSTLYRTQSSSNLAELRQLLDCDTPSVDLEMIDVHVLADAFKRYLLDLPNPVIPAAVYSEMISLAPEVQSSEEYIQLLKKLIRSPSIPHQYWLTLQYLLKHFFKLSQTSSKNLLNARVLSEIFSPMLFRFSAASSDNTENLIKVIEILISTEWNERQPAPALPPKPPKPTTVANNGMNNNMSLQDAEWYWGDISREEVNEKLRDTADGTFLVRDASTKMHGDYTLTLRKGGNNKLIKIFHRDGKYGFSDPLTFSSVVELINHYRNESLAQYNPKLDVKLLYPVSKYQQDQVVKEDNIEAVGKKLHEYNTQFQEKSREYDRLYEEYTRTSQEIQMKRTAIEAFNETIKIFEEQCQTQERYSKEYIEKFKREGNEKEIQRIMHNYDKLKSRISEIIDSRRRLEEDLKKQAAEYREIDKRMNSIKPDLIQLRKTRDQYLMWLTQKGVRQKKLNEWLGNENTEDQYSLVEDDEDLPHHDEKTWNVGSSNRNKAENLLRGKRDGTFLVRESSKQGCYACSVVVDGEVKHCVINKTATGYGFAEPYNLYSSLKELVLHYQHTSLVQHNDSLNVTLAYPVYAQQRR
# Chain of Cys242 in human PIK3CA (157-299) (P42336 157-299): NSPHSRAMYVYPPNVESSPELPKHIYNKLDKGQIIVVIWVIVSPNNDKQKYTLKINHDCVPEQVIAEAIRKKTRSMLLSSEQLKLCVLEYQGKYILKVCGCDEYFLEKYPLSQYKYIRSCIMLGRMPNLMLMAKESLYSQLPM
IC50 [1] [µM],IC50 ([3]; Tet-on KRAS G12D HeLa cells) [nM],"IC50 ([3]; Homo sapiens, HeLa) [nM]",IC50 [4] [nM],Compound,% of modification [2]
5 to 25,1000 to 10000,–,–,CCC(=O)NCc1cccc(-c2nc(-c3ccc4c(c3)CCNC4)c3ccsc3c2-c2ccc(F)cc2OCCOC)c1 [compound 9],–
< 5,1000 to 10000,–,1000 to 3000,COCCOc1cc(F)ccc1-c1c(-c2cccc(CNC(=O)C(C)C)c2)nc(-c2ccc3c(c2)CCNC3)c2ccsc12 [compound 10],–
5 to 25,1000 to 10000,–,–,COCCOc1cc(F)ccc1-c1c(-c2cnn(CC(C)(C)C)c2)nc(-c2ccc3c(c2)CCNC3)c2ccsc12 [compound 13],–
5 to 25,> 10000,–,–,COCCOc1cc(F)ccc1-c1c(-c2cccc(CNC(=O)C(C)C)c2)nc(-c2ccc3c(c2)CCNC3)c2ccsc12 [compound 14],–
< 5,1000 to 10000,–,–,COCCOc1cc(F)ccc1-c1c(-c2cccc(CNC(=O)C(C)(C)C)c2)nc(-c2ccc3c(c2)CCNC3)c2ccsc12 [compound 18],–
< 5,> 10000,–,–,COCCOc1cc(F)ccc1-c1c(-c2cccc(CNC(=O)CC(C)(C)C)c2)nc(-c2ccc3c(c2)CCNC3)c2ccsc12 [compound 19],–
< 5,1000 to 10000,–,–,CCC(=O)Nc1cccc(-c2nc(-c3ccc4c(c3)CCNC4)c3ccsc3c2-c2ccc(F)cc2OCCOC)c1 [compound 29],–
5 to 25,< 1000,–,–,C=CC(=O)N1CCC(n2cc(-c3nc(-c4ccc5c(c4)CCNC5)c4ccsc4c3-c3ccc(F)cc3OCCOC)cn2)CC1 [compound 30],A (percent of modification of PIK3CA protein ≥75%)
5 to 25,1000 to 10000,–,–,COCCOc1cc(F)ccc1-c1c(-c2cnn(CCC(=O)NC(C)(C)C)c2)nc(-c2ccc3c(c2)CCNC3)c2ccsc12 [compound 41],–
5 to 25,< 1000,–,–,C=CC(=O)N1CC[C@@H](n2cc(-c3nc(-c4ccc5c(c4)CCNC5)c4ccsc4c3-c3ccc(F)cc3OCCOC)cn2)C1 [compound 46],A (percent of modification of PIK3CA protein ≥75%)
5 to 25,< 1000,–,–,C=CC(=O)N1CC(Cn2cc(-c3nc(-c4ccc5c(c4)CCNC5)c4ccsc4c3-c3ccc(F)cc3OCCOC)cn2)C1 [compound 48],–
5 to 25,–,–,100 to 1000,C=CC(=O)NC1CC(n2cc(-c3nc(-c4ccc5c(c4)CCNC5)c4ccsc4c3-c3ccc(F)cc3OCCOC)cn2)C1 (stereo not drawn) [compound 55],A (percent of modification of PIK3CA protein ≥75%)
5 to 25,–,–,100 to 1000,C=CC(=O)NC1CC(n2cc(-c3nc(-c4ccc5c(c4)CCNC5)c4ccsc4c3-c3ccc(F)cc3OCCOC)cn2)C1 (stereo not drawn) [compound 60],A (percent of modification of PIK3CA protein ≥75%)

# More lines, now with the values behind:
Compound,IC50 [1] [µM],IC50 ([3]; Tet-on KRAS G12D HeLa cells) [nM],"IC50 ([3]; Homo sapiens, HeLa) [nM]",IC50 [4] [nM],% of modification [2]
"C=CC(=O)NCc1cccc(-c2nc(-c3ccc4c(c3)CCNC4)c3c(c2-c2ccccc2OCCOC)CCC3)c1 [Compound 1, N-(3-(4-(2-(2-methoxvethoxy)phenyl)-1-(1,2,3,4-tetrahydroisoquinolin-6-yl)-6,7-dihydro-5H-cyclopenta[c]pyridin-3-yl)benzyl)acrylamide]",5 to 25,1000 to 10000,–,–,D (percent of modification <25%)
COCCOc1cc(F)ccc1-c1c(-c2cccc(C#N)c2)nc(-c2ccc3c(c2)CCNC3)c2ccsc12 [Compound 8],> 25,> 10000,–,–,–
"C=CC(=O)NCc1cccc(-c2nc(-c3ccc4c(c3)CCNC4)c3ccsc3c2-c2ccc(F)cc2OCCOC)c1 [Compound 11, N-[[3-[7-[4-fluoro-2-(2-methoxyethoxy)phenyl]-4-(1,2,3,4-tetrahydroisoquinolin-6-yl)thieno[3,2-c]pyridin-6-yl]phenyl]methyl]prop-2-enamide]",< 5,–,1000 to 10000,–,C (25%≤percent of modification <50%)
COCCOc1ccccc1-c1c(-c2cccc(Cl)c2)nc(-c2ccc3c(c2)CCNC3)c2ccsc12 [compound 6],5 to 25,1000 to 10000,–,–,–
Fc1ccc(-c2c(-c3ccccc3)nc(-c3ccc4c(c3)CCNC4)c3ccsc23)c(OCc2ncccc2F)c1 [compound 7],5 to 25,1000 to 10000,–,–,–
COCCOc1cc(F)ccc1-c1c(-c2cccc(C(=O)N3CCCC3)c2)nc(-c2ccc3c(c2)CCNC3)c2ccsc12 [compound 15],< 5,1000 to 10000,–,–,–
COCCOc1cc(F)ccc1-c1c(-c2cccc(CN)c2)nc(-c2ccc3c(c2)CCNC3)c2ccsc12 [compound 16],5 to 25,1000 to 10000,–,–,–
COCCOc1cc(F)ccc1-c1c(-c2cccc(C(=O)NC(C)C)c2)nc(-c2ccc3c(c2)CCNC3)c2ccsc12 [compound 17],5 to 25,1000 to 10000,–,–,–
C=CC(=O)Nc1cccc(-c2nc(-c3ccc4c(c3)CCN(C)C4)c3ccsc3c2-c2ccc(F)cc2OCCOC)c1 [compound 32],5 to 25,< 1000,–,–,A (percent of modification of PIK3CA protein ≥75%)
COCCOc1cc(F)ccc1-c1c(-c2cccc(NC(=O)C(C)C)c2)nc(-c2ccc3c(c2)CCNC3)c2ccsc12 [compound 33],< 5,1000 to 10000,–,–,–
C=CC(=O)Nc1cccc(-c2nc(-c3ccc4c(c3)CCC(N(C)C)C4)c3ccsc3c2-c2ccc(F)cc2OCCOC)c1 (stereo not drawn) [compound 36],< 5,1000 to 10000,–,–,A (percent of modification of PIK3CA protein ≥75%)
C=CC(=O)NCCc1cccc(-c2nc(-c3ccc4c(c3)CCNC4)c3ccsc3c2-c2ccc(F)cc2OCCOC)c1 [compound 40],< 5,1000 to 10000,–,–,A (percent of modification of PIK3CA protein ≥75%)
C=CC(=O)N1CCC(n2cc(-c3nc(-c4ccc5c(c4)CCN(C)C5)c4ccsc4c3-c3ccc(F)cc3OCCOC)cn2)C1 (stereo not drawn) [compound 43],5 to 25,< 1000,–,–,A (percent of modification of PIK3CA protein ≥75%)
C=CC(=O)N1CC[C@H](n2cc(-c3nc(-c4ccc5c(c4)CNC(=O)C5)c4ccsc4c3-c3ccc(F)cc3OCCOC)cn2)C1 [compound 54],5 to 25,–,–,< 100,A (percent of modification of PIK3CA protein ≥75%)
C=CC(=O)N1CC[C@H](n2cc(-c3nc(-c4ccc5c(c4)CCNC5)c4ccsc4c3-c3ccc(F)cc3OCCOC)c(C)n2)C1 [compound 59],< 5,–,–,< 100,A (percent of modification of PIK3CA protein ≥75%)
